Experimental data as given in patent US11413264B2, “Carbamoyl phenylalaninol analogs and uses thereof” (Jazz Pharmaceuticals Ireland Limited, priority 2017, dated 2022).
Structures can show the parent of a compound that is named as a salt. Where two headings read alike, the source gives them in different places.

Tests used:
[1] = molecular target: T1, D2S dopamine receptor (D2S) (Homo sapiens, UniProt P14416); assay: Competitive radioligand binding assay, D2S (agonist radioligand); details: compound at 10 μM
T1 construct: expressed in transfected cells; host or cells: HEK-293 cells (membrane fractions)
Method: (§1) Compounds of the invention were tested for pharmacological activity in comparison to APC. Eight binding assays were carried out to provide a binding profile for each compound, including binding to dopamine transporter (DAT), norepinephrine transporter (NET), serotonin (5-HT) transporter (SERT), alpha2A adrenergic receptor (Alpha2A), alpha2C adrenergic receptor (Alpha2C), D2S dopamine receptor (D2S), D2L dopamine receptor (D2L), and vesicular monoamine transporter (VMAT2). Competitive binding assays using a radiolabeled ligand were carried out with each compound at 10 μM. The radioligand for each target was as follows: DAT—BTCP, NET—nisoxetine, SERT—imipramine, Alpha2A—yohimbine, Alpha2C—yohimbine, D2S—7-OH-DPAT, D2L—methylspiperone, VMAT2—tetrabenazine. The source of the receptors and transporters were prepared cell membrane fractions.

[2] = molecular target: T2, D2L dopamine receptor (D2L) (Homo sapiens, UniProt P14416); assay: Competitive radioligand binding assay, D2L (antagonist radioligand); details: compound at 10 μM
T2 construct: expressed in transfected cells; host or cells: HEK-293 cells (membrane fractions)
Method: as §1

[3] = molecular target: T3, norepinephrine transporter (NET) (Homo sapiens, UniProt P23975); assay: Competitive radioligand binding assay, norepinephrine transporter (antagonist radioligand); details: compound at 10 μM
T3 construct: expressed in transfected cells; host or cells: CHO cells (membrane fractions)
Method: as §1

[4] = molecular target: T4, serotonin (5-HT) transporter (SERT) (Homo sapiens, UniProt P31645); assay: Competitive radioligand binding assay, 5-HT transporter (antagonist radioligand); details: compound at 10 μM
T4 construct: expressed in transfected cells; host or cells: CHO cells (membrane fractions)
Method: as §1

[5] = molecular target: T5, vesicular monoamine transporter (VMAT2) (Rattus norvegicus, UniProt Q01827); assay: Competitive radioligand binding assay, VMAT2 transporter (antagonist radioligand); details: compound at 10 μM
T5 construct: Rat brain; from tissue; host or cells: rat brain minus cerebellum, membrane fraction
Method: as §1

[6] = molecular target: T6, dopamine transporter (DAT) (Homo sapiens, UniProt Q01959); assay: Competitive radioligand binding assay, dopamine transporter (antagonist radioligand); details: compound at 10 μM; for binding to the dopamine transporter (in words): summary
T6 construct: expressed in transfected cells; host or cells: CHO cells (membrane fractions)
Method: as §1

[7] = molecular target: T7, alpha2A adrenergic receptor (Alpha2A) (Homo sapiens, UniProt P08913); assay: Competitive radioligand binding assay, α2A (antagonist radioligand); details: compound at 10 μM
T7 construct: expressed in transfected cells; host or cells: CHO cells (membrane fractions)
T7 sequence (P08913 1-465): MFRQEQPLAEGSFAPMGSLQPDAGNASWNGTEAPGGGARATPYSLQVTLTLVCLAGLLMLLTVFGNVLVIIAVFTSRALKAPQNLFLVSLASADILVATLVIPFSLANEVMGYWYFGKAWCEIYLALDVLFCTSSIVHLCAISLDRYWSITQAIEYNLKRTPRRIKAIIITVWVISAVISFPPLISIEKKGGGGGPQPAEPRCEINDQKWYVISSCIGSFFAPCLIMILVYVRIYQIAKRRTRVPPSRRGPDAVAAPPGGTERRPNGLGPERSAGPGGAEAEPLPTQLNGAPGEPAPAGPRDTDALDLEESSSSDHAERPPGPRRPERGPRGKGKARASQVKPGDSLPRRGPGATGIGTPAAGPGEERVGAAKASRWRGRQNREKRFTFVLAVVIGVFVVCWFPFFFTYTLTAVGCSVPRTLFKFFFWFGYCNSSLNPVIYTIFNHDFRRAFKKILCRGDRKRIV
Method: as §1

[8] = molecular target: T8, alpha2C adrenergic receptor (Alpha2C) (Homo sapiens, UniProt P18825); assay: Competitive radioligand binding assay, α2C (antagonist radioligand); details: compound at 10 μM
T8 construct: expressed in transfected cells; host or cells: CHO cells (membrane fractions)
T8 sequence (P18825 1-462): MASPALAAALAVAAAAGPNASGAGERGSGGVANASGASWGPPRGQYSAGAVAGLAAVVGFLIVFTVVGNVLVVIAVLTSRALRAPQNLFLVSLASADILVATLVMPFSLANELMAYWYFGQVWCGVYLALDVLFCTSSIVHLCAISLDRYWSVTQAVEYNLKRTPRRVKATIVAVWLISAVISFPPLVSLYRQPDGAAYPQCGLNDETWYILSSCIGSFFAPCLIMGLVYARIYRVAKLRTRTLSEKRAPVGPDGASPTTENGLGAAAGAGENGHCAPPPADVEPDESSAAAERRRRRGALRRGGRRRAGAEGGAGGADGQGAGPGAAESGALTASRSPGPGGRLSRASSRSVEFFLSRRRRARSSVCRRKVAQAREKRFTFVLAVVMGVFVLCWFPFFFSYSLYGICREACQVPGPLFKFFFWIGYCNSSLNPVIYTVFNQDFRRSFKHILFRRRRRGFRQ
Method: as §1

[9] = D2S, 1st individual result, read-out: % inhibition of control specific binding, 1st
[10] = D2S, 2nd individual result, read-out: % inhibition of control specific binding, 2nd
[11] = D2S, mean, read-out: % inhibition of control specific binding, Mean
[12] = [3H]7-OH-DPAT 1 nM, human recombinant (HEK-293 cells), read-out: % Inhibition of Binding at Each Transporter or Receptor Target, D2S
[13] = D2L, 1st individual result, read-out: % inhibition of control specific binding, 1st
[14] = D2L, 2nd individual result, read-out: % inhibition of control specific binding, 2nd
[15] = D2L, mean, read-out: % inhibition of control specific binding, Mean
[16] = [3H]methyl-spiperone 0.3 nM, human recombinant (HEK-293 cells), read-out: % Inhibition of Binding at Each Transporter or Receptor Target, D2L
[17] = Norepinephrine transporter, 1st individual result, read-out: % inhibition of control specific binding, 1st
[18] = Norepinephrine transporter, 2nd individual result, read-out: % inhibition of control specific binding, 2nd
[19] = Norepinephrine transporter, mean, read-out: % inhibition of control specific binding, Mean
[20] = [3H]nisoxetine 1 nM, human recombinant (CHO cells), read-out: % Inhibition of Binding at Each Transporter or Receptor Target, NET
[21] = 5-HT transporter, 1st individual result, read-out: % inhibition of control specific binding, 1st
[22] = 5-HT transporter, 2nd individual result, read-out: % inhibition of control specific binding, 2nd
[23] = 5-HT transporter, mean, read-out: % inhibition of control specific binding, Mean
[24] = [3H]imipramine 2 nM, human recombinant (CHO cells), read-out: % Inhibition of Binding at Each Transporter or Receptor Target, SERT
[25] = VMAT2 transporter, single value, read-out: % inhibition of control specific binding, 1st
[26] = [3H]dihydrotetrabenazine 10 nM, rat brain (minus cerebellum), read-out: % Inhibition of Binding at Each Transporter or Receptor Target, VMAT2
[27] = Dopamine transporter, 1st individual result, read-out: % inhibition of control specific binding, 1st
[28] = Dopamine transporter, 2nd individual result, read-out: % inhibition of control specific binding, 2nd
[29] = Dopamine transporter, mean, read-out: % inhibition of control specific binding, Mean
[30] = [3H]BTCP 4 nM, human recombinant (CHO cells), read-out: % Inhibition of Binding at Each Transporter or Receptor Target, DAT
[31] = 1st individual result, read-out: % inhibition of control specific binding, 1st
[32] = 2nd individual result, read-out: % inhibition of control specific binding, 2nd
[33] = mean, read-out: % inhibition of control specific binding, Mean

T6 sequence (Q01959 whole entry): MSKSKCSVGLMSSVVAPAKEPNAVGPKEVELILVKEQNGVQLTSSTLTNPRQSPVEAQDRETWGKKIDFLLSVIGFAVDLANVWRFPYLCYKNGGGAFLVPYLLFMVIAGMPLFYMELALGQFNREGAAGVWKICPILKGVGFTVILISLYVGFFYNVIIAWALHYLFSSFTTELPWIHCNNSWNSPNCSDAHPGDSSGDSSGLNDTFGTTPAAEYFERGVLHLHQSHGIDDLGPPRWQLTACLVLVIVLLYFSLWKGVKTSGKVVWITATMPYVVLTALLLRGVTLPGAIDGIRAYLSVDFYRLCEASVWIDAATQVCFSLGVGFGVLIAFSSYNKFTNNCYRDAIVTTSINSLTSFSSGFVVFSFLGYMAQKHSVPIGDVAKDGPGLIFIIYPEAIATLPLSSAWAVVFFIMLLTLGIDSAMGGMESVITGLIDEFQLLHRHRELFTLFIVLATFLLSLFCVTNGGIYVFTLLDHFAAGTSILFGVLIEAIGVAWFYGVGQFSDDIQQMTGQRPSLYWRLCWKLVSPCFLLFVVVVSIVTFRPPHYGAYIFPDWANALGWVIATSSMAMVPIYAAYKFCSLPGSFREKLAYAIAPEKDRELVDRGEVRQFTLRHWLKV
T1 sequence (P14416 1-414 isoform P14416-2): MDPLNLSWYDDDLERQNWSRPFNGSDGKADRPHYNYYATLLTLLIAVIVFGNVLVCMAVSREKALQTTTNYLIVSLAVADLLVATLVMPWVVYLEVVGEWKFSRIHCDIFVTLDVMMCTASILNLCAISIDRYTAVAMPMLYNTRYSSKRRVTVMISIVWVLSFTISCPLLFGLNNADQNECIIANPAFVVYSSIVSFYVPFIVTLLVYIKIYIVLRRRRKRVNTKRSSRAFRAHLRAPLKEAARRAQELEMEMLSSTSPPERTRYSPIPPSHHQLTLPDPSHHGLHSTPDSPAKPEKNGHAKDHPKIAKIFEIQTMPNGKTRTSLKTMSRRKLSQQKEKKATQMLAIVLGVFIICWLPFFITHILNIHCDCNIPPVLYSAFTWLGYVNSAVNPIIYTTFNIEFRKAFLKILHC
T4 sequence (P31645 whole entry): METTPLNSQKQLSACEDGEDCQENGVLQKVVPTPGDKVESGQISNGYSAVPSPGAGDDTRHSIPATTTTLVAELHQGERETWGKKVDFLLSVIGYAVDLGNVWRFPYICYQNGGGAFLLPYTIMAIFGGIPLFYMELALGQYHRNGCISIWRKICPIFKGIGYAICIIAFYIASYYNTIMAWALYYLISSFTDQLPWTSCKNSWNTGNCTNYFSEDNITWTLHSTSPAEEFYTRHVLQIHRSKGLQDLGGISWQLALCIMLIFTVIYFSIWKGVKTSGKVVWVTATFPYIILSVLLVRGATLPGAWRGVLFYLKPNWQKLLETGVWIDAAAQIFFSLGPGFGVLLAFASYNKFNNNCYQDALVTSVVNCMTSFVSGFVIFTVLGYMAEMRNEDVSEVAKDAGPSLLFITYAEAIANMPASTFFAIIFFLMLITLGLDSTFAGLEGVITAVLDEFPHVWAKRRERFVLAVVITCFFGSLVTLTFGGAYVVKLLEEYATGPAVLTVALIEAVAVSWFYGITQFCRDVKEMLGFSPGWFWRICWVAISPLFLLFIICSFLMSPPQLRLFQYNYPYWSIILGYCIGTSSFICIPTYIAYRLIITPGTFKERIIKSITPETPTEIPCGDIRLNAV
T3 sequence (P23975 whole entry): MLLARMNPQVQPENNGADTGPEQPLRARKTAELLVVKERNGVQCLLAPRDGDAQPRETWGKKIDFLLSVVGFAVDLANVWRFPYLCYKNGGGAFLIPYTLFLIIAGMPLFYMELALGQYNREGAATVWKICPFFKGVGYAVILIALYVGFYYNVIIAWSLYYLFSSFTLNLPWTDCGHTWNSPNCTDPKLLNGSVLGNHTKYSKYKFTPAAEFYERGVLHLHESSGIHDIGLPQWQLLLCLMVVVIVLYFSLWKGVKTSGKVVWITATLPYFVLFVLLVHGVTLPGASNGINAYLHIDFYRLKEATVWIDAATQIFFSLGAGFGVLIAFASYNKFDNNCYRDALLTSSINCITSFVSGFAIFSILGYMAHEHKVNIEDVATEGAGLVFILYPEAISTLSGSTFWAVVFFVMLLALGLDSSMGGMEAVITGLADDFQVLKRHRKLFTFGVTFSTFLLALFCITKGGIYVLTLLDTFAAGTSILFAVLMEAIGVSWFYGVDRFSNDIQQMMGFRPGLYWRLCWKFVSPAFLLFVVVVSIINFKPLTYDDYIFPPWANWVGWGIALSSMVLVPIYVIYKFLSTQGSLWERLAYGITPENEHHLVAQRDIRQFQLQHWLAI
T2 sequence (P14416 whole entry): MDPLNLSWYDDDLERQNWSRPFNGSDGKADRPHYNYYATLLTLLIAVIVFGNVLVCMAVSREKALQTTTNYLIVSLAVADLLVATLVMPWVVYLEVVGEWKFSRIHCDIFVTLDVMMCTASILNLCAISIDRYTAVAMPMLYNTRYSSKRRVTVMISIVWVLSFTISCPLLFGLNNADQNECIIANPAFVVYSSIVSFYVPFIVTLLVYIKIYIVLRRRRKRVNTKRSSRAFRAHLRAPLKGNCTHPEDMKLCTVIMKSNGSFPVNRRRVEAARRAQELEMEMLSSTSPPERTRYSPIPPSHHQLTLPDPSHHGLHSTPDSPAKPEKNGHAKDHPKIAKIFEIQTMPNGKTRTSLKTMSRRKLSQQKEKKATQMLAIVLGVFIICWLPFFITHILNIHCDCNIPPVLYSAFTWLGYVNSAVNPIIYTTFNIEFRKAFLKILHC
T5 sequence (Q01827 whole entry): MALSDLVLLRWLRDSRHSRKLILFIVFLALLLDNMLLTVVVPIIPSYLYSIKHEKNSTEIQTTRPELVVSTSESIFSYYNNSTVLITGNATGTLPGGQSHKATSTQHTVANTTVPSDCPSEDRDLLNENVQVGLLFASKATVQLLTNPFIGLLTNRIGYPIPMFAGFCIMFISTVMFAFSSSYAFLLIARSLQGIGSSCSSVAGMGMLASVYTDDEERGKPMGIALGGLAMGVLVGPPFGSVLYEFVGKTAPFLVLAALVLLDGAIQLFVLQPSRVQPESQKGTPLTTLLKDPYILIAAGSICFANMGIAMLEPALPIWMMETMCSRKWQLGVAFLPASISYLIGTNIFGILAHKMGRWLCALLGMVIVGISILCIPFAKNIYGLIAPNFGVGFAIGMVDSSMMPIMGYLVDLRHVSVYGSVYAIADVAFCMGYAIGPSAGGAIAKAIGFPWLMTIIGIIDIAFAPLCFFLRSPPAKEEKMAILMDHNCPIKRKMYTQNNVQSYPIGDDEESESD

Structure (SMILES)	inhibition at 10 µM [1, 9] [%]	inhibition at 10 µM [1, 10] [%]	inhibition at 10 µM [1, 11] [%]	inhibition at 10 µM [1, 12] [%]	inhibition at 10 µM [2, 13] [%]	inhibition at 10 µM [2, 14] [%]	inhibition at 10 µM [2, 15] [%]	inhibition at 10 µM [2, 16] [%]	inhibition at 10 µM [3, 17] [%]	inhibition at 10 µM [3, 18] [%]	inhibition at 10 µM [3, 19] [%]	inhibition at 10 µM [3, 20] [%]	inhibition at 10 µM [4, 21] [%]	inhibition at 10 µM [4, 22] [%]	inhibition at 10 µM [4, 23] [%]	inhibition at 10 µM [4, 24] [%]	inhibition at 10 µM [5, 25] [%]	inhibition at 10 µM [5, 26] [%]	inhibition at 10 µM [6, 27] [%]	inhibition at 10 µM [6, 28] [%]	other results
NC(=O)CC[C@H](N)Cc1ccccc1 [Compound 4, (S)-4-Amino-5-phenylpentanamide hydrochloride]	-8.2	-3.7	-6	-6	1.4	0.8	1.1	1.1	7	-21.9	-7.5	-7.5	-2.9	1.8	-0.5	-0.5	0	0	52.9	60	inhibition at 10 µM [6, 29]: 56.5%; inhibition at 10 µM [6, 30]: 56.5%; binding to the dopamine transporter (in words) [6]: substantial binding; inhibition at 10 µM [7, 31]: 7.8%; inhibition at 10 µM [7, 32]: -9.3%; inhibition at 10 µM [7, 33]: -0.8%; inhibition at 10 µM [8, 31]: 3.4%; inhibition at 10 µM [8, 32]: 2.3%; inhibition at 10 µM [8, 33]: 2.9%
NC(=O)OC[C@H](N)Cc1ccccc1 [APC, (R)-2-amino-3-phenylpropyl carbamate, reference compound]	0.7	8.2	4.4	4.4	-0.1	4.6	2.3	2.3	6.9	16	11.4	11.4	-6.3	-3.3	-4.8	-4.8	7	7	79.3	81.1	inhibition at 10 µM [6, 29]: 80.2%; inhibition at 10 µM [6, 30]: 80.2%; binding to the dopamine transporter (in words) [6]: substantial binding; inhibition at 10 µM [7, 31]: 5.2%; inhibition at 10 µM [7, 32]: 8.7%; inhibition at 10 µM [7, 33]: 7%; inhibition at 10 µM [8, 31]: 4.1%; inhibition at 10 µM [8, 32]: 2.3%; inhibition at 10 µM [8, 33]: 3.2%
NC(=O)SC[C@H](N)Cc1ccccc1 [Compound 10, (R)—S-(2-Amino-3-phenylpropyl) carbamothioate hydrochloride]	89.5	90.5	90	90	33.7	35.6	34.7	34.7	91.7	91.7	91.7	91.7	21.7	22	21.9	21.9	5	5	85.3	87.3	binding to the norepinephrine transporter (in words) ([3]; summary): substantial binding; inhibition at 10 µM [6, 29]: 86.3%; inhibition at 10 µM [6, 30]: 86.3%; binding to the dopamine transporter (in words) [6]: substantial; inhibition at 10 µM [7, 31]: 64.4%; inhibition at 10 µM [7, 32]: 46.1%; inhibition at 10 µM [7, 33]: 55.3%; inhibition at 10 µM [8, 31]: 89.3%; inhibition at 10 µM [8, 32]: 92.4%; inhibition at 10 µM [8, 33]: 90.9%
